These results are taken from ChEMBL document CHEMBL3507680, “University of Dundee, Gates Library screen for HepG2 cell viability”.

A short description of this data set: Human HepG2 cell viability assay in 384 well format. It counts as toxicity, cell-based. More on the design: dose 125 nL, time 70.5 hour; concentration not given beside the values. The conditions noted are these: HepG2 cells, read-out: Inhibition.
Regarding `CCOc1ccc2[nH]c(=O)c(CN3CCN(S(N)(=O)=O)CC3)cc2c1`, the cytotoxicity at 70.5 h was -11.9%.

`O=C(Cc1ccc2c(c1)OCC2)Nc1nn[nH]n1`: the cytotoxicity at 70.5 h is -8.8%.

As for `CS(=O)(=O)NCc1nnc2n1CCN(Cc1nccs1)C2`, the cytotoxicity at 70.5 h was found to be 5.64%.

Take `CCn1nnc(NCc2ccccc2OCc2ccc(Cl)cc2)n1`: the cytotoxicity at 70.5 h is -7.27%.

For `O=C(c1ccc[nH]1)N1CCOC2(COCCN(c3cncnc3)C2)C1` (stereo not given), the cytotoxicity at 70.5 h was -7.73%.

For the compound `COCC1c2nnn(C)c2CCN1C(=O)CCc1cccc(OC)c1` (stereo not given), the cytotoxicity at 70.5 h is -3.47%.

For `Cc1cc(CNC(=O)N2CCOC(c3ccccc3Cl)C2)no1` (stereo not given), the cytotoxicity at 70.5 h is -7.66%.

In the case of `Clc1ccccc1OCCc1cc(C2CCNC2)n[nH]1` (stereo not given), the cytotoxicity at 70.5 h is -4.47%.

As to `CCNc1ncc2c(n1)CN(c1ccc(C)c(C)c1)C2=O`, the cytotoxicity at 70.5 h is -11.2%.

For the compound `O=C(CNC(=O)c1cc(Cl)ccn1)Nc1nccs1`, the cytotoxicity at 70.5 h was -4.32%.

Consider `COC(=O)c1ccc(N2CCN(C(=O)c3cc(C)on3)C(C)C2)cc1` (stereo not given), for which the cytotoxicity at 70.5 h was -15.3%.

For `CCC(C)(C)NC(=O)COC(=O)c1cc(C)ccc1NC(=O)N(C)C`, the cytotoxicity at 70.5 h was -7.98%.

Regarding `Cc1nn(C)c(Cl)c1C1CCCN1CC(=O)NCc1ccco1` (stereo not given), the cytotoxicity at 70.5 h was -8.19%.

In the case of `CS(=O)(=O)CCCSCc1cc(F)cc(Br)c1`, the cytotoxicity at 70.5 h was -4.67%.

As for `CO[C@H]1CC[C@H]2[C@H]1OCCN2Cc1ccc(F)cc1`, the cytotoxicity at 70.5 h stood at 9.89%.

In the case of `O=C(NCc1ccccn1)c1nnn(-c2ccc(Br)cc2)n1`, the cytotoxicity at 70.5 h amounted to 10.5%.

Regarding `Cc1csc(CCCNc2ccc(S(N)(=O)=O)cc2C#N)n1`, the cytotoxicity at 70.5 h was -22.6%.

`NC(=O)c1cc(C2CCCN(CCOCC(F)(F)F)C2)n[nH]1` (stereo not given): the cytotoxicity at 70.5 h stood at 34.2%.

In the case of `CN(C)c1nccc(CNC(=O)NC(C)(C)C)n1`, the cytotoxicity at 70.5 h is -0.141%.

As to `CN(C)c1nccc(-c2c[nH][nH]c2=O)n1`, the cytotoxicity at 70.5 h is -1.59%.

On to `Oc1cccc(CNCCC2CCCO2)c1` (stereo not given), for which the cytotoxicity at 70.5 h was -12.5%.

Turning to `CCc1sc(C(=O)NC2CC2)cc1C`, the cytotoxicity at 70.5 h was found to be 8.53%.

As to `Cc1cc(Cl)c2c(c1)C1(NC(=O)c3cccnc3N1)C(=O)N2` (stereo not given), the cytotoxicity at 70.5 h is -1.82%.

`Cc1cccc(CN2CCOCC3(CCN(C4CCOCC4)C3)C2)c1` (stereo not given): the cytotoxicity at 70.5 h amounted to 9.31%.

For the compound `COc1ccc(CN(C)c2nccc(-c3cn(C)nc3C)n2)cc1`, the cytotoxicity at 70.5 h came out at 13.2%.

Consider `CC(C)Nc1nc2c(cc1C(=O)O)CCN(Cc1ccsc1)CC2`, for which the cytotoxicity at 70.5 h is -6.73%.

With `CS(=O)(=O)Cc1nc(CN2CCc3ccccc3CC2)cs1`, the cytotoxicity at 70.5 h worked out at 5.16%.

Regarding `O=C1COC2(CCN(S(=O)(=O)C3CC3)CC2)CN1c1ccsc1`, the cytotoxicity at 70.5 h was -17.5%.

As for `CNC(=O)CS(=O)(=O)C1CCN(S(=O)(=O)c2cccnc2)CC1`, the cytotoxicity at 70.5 h was -3.91%.

As for `CCNC(=O)c1nnn(Cc2ccccc2)c1OC`, the cytotoxicity at 70.5 h is -7.02%.

As for `COc1ccc(CN2CCN(C3CCc4ccccc4C3)CC2)cc1O` (stereo not given), the cytotoxicity at 70.5 h was determined as 3.2%.

For `CNC(=O)C(C)NC(=O)c1cc(COc2ccc(OC)cc2Cl)[nH]n1` (stereo not given), the cytotoxicity at 70.5 h is -2.95%.

Take `OC(CN(Cc1ccccc1)Cc1ccncc1)c1cccs1` (stereo not given): the cytotoxicity at 70.5 h came to 21.6%.

As for `CC(=O)N1CC(=O)N(c2cnn(C)c2)CC12CCN(Cc1ccco1)C2` (stereo not given), the cytotoxicity at 70.5 h was -16.8%.

For the compound `Cc1ccccc1-n1cc(C2=CCN(CCN3CCOCC3)CC2)cn1`, the cytotoxicity at 70.5 h was 12.8%.

In the case of `Cc1noc(C)c1CN1CCc2ncnc(-c3ccccc3)c2CC1`, the cytotoxicity at 70.5 h is 18.5%.

For the compound `Cc1cccnc1C(=O)N1CCC(Cc2cnc3[nH]ccc3c2)CC1`, the cytotoxicity at 70.5 h stood at 21.2%.

In the case of `CN1C(=O)COc2ccc(C(=O)Cn3cnc4ccccc4c3=O)cc21`, the cytotoxicity at 70.5 h was -12%.

Take `O=C(O)c1cc(S(=O)(=O)Nc2cc(F)ccc2F)cc2c1OCCO2`: the cytotoxicity at 70.5 h was -3.33%.

`CC(C)NC(=O)COc1ccc(-c2nc(C(C)C)no2)cc1`: the cytotoxicity at 70.5 h is -19.4%.

As for `CCOc1ccc(-c2nc(CN(C)Cc3c(C)noc3C)cs2)cc1`, the cytotoxicity at 70.5 h amounted to 11.3%.

In the case of `CN1CCc2c(c(COc3cncnc3)nn2CC2CC2)C1`, the cytotoxicity at 70.5 h turned out to be 5.89%.

As to `COc1cccc([C@H]2CN(C(=O)c3scc4c3CCCC4)C[C@@H]2N)c1`, the cytotoxicity at 70.5 h was -12%.

`O=C(Nc1cccnc1)[C@H]1C[C@@H]2CCN(c3nncs3)C[C@H]2O1`: the cytotoxicity at 70.5 h is -1.35%.

Consider `CS(=O)(=O)NCCCN1CCCCC1c1cc2ccccc2[nH]1` (stereo not given), for which the cytotoxicity at 70.5 h was found to be 33.9%.

As to `Cc1nn(C)c(C)c1-c1ccc(=O)n(C(C)C(=O)NC(C)(C)C)n1` (stereo not given), the cytotoxicity at 70.5 h was 3.31%.

For the compound `O=C(NCC(O)CN1CCc2ccccc2C1)Nc1cccnc1` (stereo not given), the cytotoxicity at 70.5 h is -17.4%.

As for `CC(NC(=O)COCC(F)(F)F)c1nnc2n1CCCCC2` (stereo not given), the cytotoxicity at 70.5 h is -16.3%.

Consider `Cn1ccnc1CNC(=O)c1cncc(C2CCNCC2)n1`, for which the cytotoxicity at 70.5 h is -5.18%.

Turning to `C=C(C)COc1ccccc1CN1CCC(C(=O)NCC)C1` (stereo not given), the cytotoxicity at 70.5 h is -7.01%.

As to `Cc1cccc(N2CCN(C(=O)CNCCn3cc(C)cn3)CC2)c1`, the cytotoxicity at 70.5 h was 45%.

`c1cncc(CN2CCC3(COCCN(C4CCOCC4)C3)C2)c1` (stereo not given): the cytotoxicity at 70.5 h is -6.19%.

For the compound `O=C(NCCN1CCc2ccccc2C1)c1scnc1Cl`, the cytotoxicity at 70.5 h is -1.52%.

Take `Cc1cc(OCCC(=O)Nc2cccc(F)c2)nnc1C`: the cytotoxicity at 70.5 h is 8.29%.

`CC(C)CC(C#N)NC(=O)c1ccc(Oc2cccnc2)cc1` (stereo not given): the cytotoxicity at 70.5 h is -5.49%.

`Cc1nc2n(n1)CC(Nc1ncnc3c1CCC3)CC2` (stereo not given): the cytotoxicity at 70.5 h was -10.2%.

Consider `Cc1cc2nc(CO[C@H]3CN(C(=O)C4CC4)C[C@H]3F)[nH]c2cc1C`, for which the cytotoxicity at 70.5 h came out at 27.1%.

In the case of `Cc1ncc2c(c1CNC(=O)C1(c3ccc(F)cc3)CC1)CCNC2`, the cytotoxicity at 70.5 h is -5.4%.

For `O=C(c1csc(-c2ncccn2)n1)N1CCN(C2CCCC2)CC1`, the cytotoxicity at 70.5 h is -5.27%.

Take `CC(=O)N1CCC2(CC1)CN(C(=O)c1ccc3c(c1)OCO3)C2`: the cytotoxicity at 70.5 h came to 5.17%.

Regarding `Cc1cc(-n2cccn2)ccc1CN1CCOCC(CN(C)C)C1` (stereo not given), the cytotoxicity at 70.5 h turned out to be 27.5%.

`O=C1CNc2ncnc(N3CCN(Cc4ccccc4F)CC3)c2N1`: the cytotoxicity at 70.5 h is -7.69%.

For `CC(C)OC(=O)CC(NC(=O)CCn1cccn1)c1ccccc1` (stereo not given), the cytotoxicity at 70.5 h was 5.59%.

Turning to `NCc1ccc(OC(F)F)cc1OC(F)F`, the cytotoxicity at 70.5 h was -15.9%.

With `Cc1nc(CN2CCCC(NCC(=O)Nc3cccnc3)C2)no1` (stereo not given), the cytotoxicity at 70.5 h was -8.83%.

For `CN(Cc1ccc2nsnc2c1)C(=O)Cn1ncc(N(C)C)cc1=O`, the cytotoxicity at 70.5 h was -7.03%.

Consider `CC(C#N)(NC(=O)COc1ccccc1Br)C1CC1` (stereo not given), for which the cytotoxicity at 70.5 h was 8.66%.

With `COc1ccccc1CN(Cc1nc(CC(C)C)no1)C1CC1`, the cytotoxicity at 70.5 h was -14.2%.

In the case of `Cc1ccc(C(=O)N2C[C@@H]3CC[C@H](C2)N(Cc2ccccc2)C3)cn1`, the cytotoxicity at 70.5 h was found to be 17.8%.

As for `CCCNC(=O)CN1CCCC1c1nc(Cc2ccc(F)cc2)no1` (stereo not given), the cytotoxicity at 70.5 h is -4.46%.

For the compound `Cc1ccc(CN2CCc3onc(C(=O)N4CCCC4)c3C2)o1`, the cytotoxicity at 70.5 h is -6.06%.

As for `CN(C)c1cc(C2CCCN2C(=O)c2noc3c2CCCC3)ccn1` (stereo not given), the cytotoxicity at 70.5 h was -6.7%.

In the case of `Cc1cc(C(=O)N(Cc2c(C)nn(C)c2C)C(C)C)nc(C)n1`, the cytotoxicity at 70.5 h is 17%.

For `Cc1nc(C)n(CC2CN(CC(=O)Nc3ccncc3)CCO2)n1` (stereo not given), the cytotoxicity at 70.5 h is -5.56%.

In the case of `COCC1CN(Cc2ccsc2)Cc2cnn(C)c21` (stereo not given), the cytotoxicity at 70.5 h is -2.85%.

As to `O=S1(=O)c2cnccc2OC(COc2ccccc2)CN1CC1CC1` (stereo not given), the cytotoxicity at 70.5 h is -1.49%.

On to `CC1(Cc2ccccn2)NCCc2[nH]cnc21` (stereo not given), for which the cytotoxicity at 70.5 h is -1.72%.

Regarding `C[S+]([O-])CCNC(=O)N1CCSC2(CCCCC2)C1` (stereo not given), the cytotoxicity at 70.5 h is -3.78%.

`O=C(NC1CC1)c1cc(C(F)(F)F)cc(C(F)(F)F)n1`: the cytotoxicity at 70.5 h was -9.57%.

For the compound `Cc1cc(F)ccc1N1CCC(N2C[C@@H](C)[C@@](C)(O)C2)CC1`, the cytotoxicity at 70.5 h was -5.91%.

For `Cc1nc(C2CCCNC2)cc(N(C)CCc2ccccc2)n1` (stereo not given), the cytotoxicity at 70.5 h came out at 20.6%.

Turning to `N#CCCN(Cc1cccnc1)C(=O)c1ccn(-c2ccccc2)n1`, the cytotoxicity at 70.5 h was determined as 1.01%.

Take `Fc1ccccc1CO[C@@H]1C[C@H]2CN(c3ncccn3)CCN2C1`: the cytotoxicity at 70.5 h stood at 4.66%.

Regarding `CC(C)NC(=O)C(C(C)C)n1cnc2cc(F)c(F)cc21` (stereo not given), the cytotoxicity at 70.5 h is -7.62%.

For `COCCc1noc(CN(C)c2nccc(C)n2)n1`, the cytotoxicity at 70.5 h is -6.87%.

Consider `O=C(c1cc2c(s1)CCC2)N1CCCC(c2cnccn2)C1` (stereo not given), for which the cytotoxicity at 70.5 h was -17%.

Turning to `CCOCC1COCCC12CCN(C(=O)CS(C)(=O)=O)CC2` (stereo not given), the cytotoxicity at 70.5 h is -4.64%.

`Cc1csc(N2CCN(CC(=O)N3CCCC3)CC2C)n1` (stereo not given): the cytotoxicity at 70.5 h was determined as 1.56%.

In the case of `COCCC(=O)N(Cc1ccccn1)Cc1ccccc1C`, the cytotoxicity at 70.5 h was found to be 7.25%.

Take `CCCn1nc(C)c(-c2cncn2CC2(N(C)C)CCC(C)CC2)c1C` (stereo not given): the cytotoxicity at 70.5 h was -5.71%.

On to `O=C(C1CC1)N1CC2(CCN(CC3CC3)CC2)c2cc(F)ccc21`, for which the cytotoxicity at 70.5 h came out at 25.9%.

Turning to `CCOC(C)c1nc(CN2CCC(C3OCCO3)CC2)cs1` (stereo not given), the cytotoxicity at 70.5 h amounted to 9.96%.

For `Cc1cccc(C2(CNC(=O)CCNS(C)(=O)=O)CCCC2)c1`, the cytotoxicity at 70.5 h turned out to be 27%.

With `CCN1CCCC(O)(c2nc(C)c(CCOc3ccc(F)cc3)s2)CC1` (stereo not given), the cytotoxicity at 70.5 h was 13.4%.

With `Cc1nn(C)c(Cl)c1C1CCCN1C(=O)c1ccc2c(c1)OCO2` (stereo not given), the cytotoxicity at 70.5 h was -16.9%.

Regarding `Cc1cnc(C)c(-c2cccc(-c3ccn(CCN4CCCC4)n3)c2)n1`, the cytotoxicity at 70.5 h worked out at 11.2%.

For the compound `O[C@H]1[C@H](NCCc2ccccn2)c2ccccc2C12CCNCC2`, the cytotoxicity at 70.5 h is 20.6%.

Consider `CC1CN(C(=O)C2(c3ccc(F)cc3F)CCOCC2)CCO1` (stereo not given), for which the cytotoxicity at 70.5 h was -2.6%.

`Cn1cnnc1C1CCCN(C(=O)c2cc(-c3ccccc3)on2)C1` (stereo not given): the cytotoxicity at 70.5 h was -9.15%.

Turning to `Cc1cc(=O)c2ccccc2n1CC1CCCN(C)C1` (stereo not given), the cytotoxicity at 70.5 h was found to be 31.9%.
